Measurements reported in patent US11202818B2, “Methods and compositions for modulating erythropoiesis” (President and Fellows of Harvard College, priority 2016, dated 2021).

Test system: Kit+CD55+Lin-CD71lo BM cells
Experiment: ETD activation in cultured pre-ETD BM cells with S phase arrest
Format: cell-based, mouse
Protocol: To test whether the synchronization of ETD activation with S phase reflects mechanistic dependence, BM cells were isolated prior to the onset of ETD (Kit+CD55+Lin−CD71lo, FIG. 5, Panels f-h). The cells were cultured in the presence of Epo, which allowed them to activate the ETD, reflected first by the upregulation of CD71, followed by the upregulation of the erythroid cell surface marker Ter119, and induction of the beta-globin gene (Hbb-b1). […] The ensuing ETD activation proceeded with a 10-hour delay in the induction of CD71 and Hbb-b1 (FIG. 5, Panels g and h).

[1] = added for the first 10 hours of culture with Epo

**Q.** With `C[C@@]1(CO)[C@H](O)CC[C@@]2(C)[C@H]1CC[C@H]1C[C@@H]3C[C@@]12CC[C@]3(O)CO` [aphidicolin] as the compound, how does the “effect on S phase” value [1] read?
**A.** arrested S phase

**Q.** What about the “effect on upregulation of CD71” value [1] of the same compound?
**A.** paused upregulation of CD71

**Q.** And the “delay in the induction of CD71 and Hbb-b1” value (after removal, added for the first 10 hours)?
**A.** 10 h
